Converted amounts (≈) assume the structure as drawn.
Key:
C. auris CDC 381 = assay: MIC/MFC of CSA-4110, fungi (Table 4); format: cell-based, Candida auris; conditions: Candidozyma auris, CDC381
Protocol: (§1) All compounds were screened against these pathogens to determine their minimum inhibitory concentration (MIC), minimum bactericidal concentration (MBC), and minimum fungicidal concentration (MFC) using a broth microdilution method. […] Of these three, only CSA-4110 was similarly active against PA01and CA, inhibiting growth at 8 μg/mL.
(§2) CSA-4110 was evaluated further against a broader range of bacterial and fungal strains. Acinetobacter baumannii and several isolates of Staphylococcus aureus, Klebsiella pneumoniae, and Candida auris were selected, further broadening the coverage of high and critical priority pathogens. Streptococcus uberis, Staphylococcus pseudintermedius, Proteus mirabilis, and Escherichia coli were also screened to obtain a more complete efficacy profile. […] For comparison, previous work established the MICs of CSA-131 against strains of Staphylococcus aureus, Pseudomonas aeruginosa, and Candida albicans at 0.5-2 μg/mL

C. auris CDC 390 = assay: MIC/MFC of CSA-4110, fungi (Table 4); format: cell-based, Candida auris; conditions: Candidozyma auris, CDC390
Protocol: as §1, §2

C. auris CDC 384 = assay: MIC/MFC of CSA-4110, fungi (Table 4); format: cell-based, Candida auris; conditions: Candidozyma auris, CDC384
Protocol: as §1, §2

C. auris CDC 389 = assay: MIC/MFC of CSA-4110, fungi (Table 4); format: cell-based, Candida auris; conditions: Candidozyma auris, CDC389
Protocol: as §1, §2

C. auris CDC 388 = assay: MIC/MFC of CSA-4110, fungi (Table 4); format: cell-based, Candida auris; conditions: Candidozyma auris, CDC388
Protocol: as §1, §2

C. auris CDC 383 = assay: MIC/MFC of CSA-4110, fungi (Table 4); format: cell-based, Candida auris; conditions: Candidozyma auris, CDC383
Protocol: as §1, §2

C. auris CDC 387 = assay: MIC/MFC of CSA-4110, fungi (Table 4); format: cell-based, Candida auris; conditions: Candidozyma auris, CDC387
Protocol: as §1, §2

physchem = format: physicochemical; conditions: for half-life: buffer
Protocol: (§3) The stability, more particularly the rate of hydrolysis in water, of CSA-4110 was tested at various pH values or when exposed to lipase.
(§4) To measure the stability of CSA-4110 under various conditions (pH and presence of lipase), monitored degradation over time by HPLC. To enable UV/visible detection, CSA-4110 required derivatization with a chromophore. A precolumn derivatization method was adapted using Fmoc-Cl. This method also required CSA-131 as an internal standard to eliminate errors due to volumetric variations.
(§5) With a reliable quantitative analysis method in hand, the optimal storage conditions were determined for CSA-4110 in solution and how quickly CSA-4110 degrades when exposed to mammalian lipases and varied pH. Reference is again made to FIGS. 3A-3D.

[1] = system: broader range of bacterial and fungal strains; assay: CSA-4110 against a broader range of bacterial and fungal strains (summary of Tables 2-4); format: cell-based
Protocol: as §1, §2

Candida albicans 90028 = assay: Example 1 MIC/MFC (FIG. 1, FIG. 2), C. albicans; format: cell-based
Protocol: (§6) The antimicrobial activities of CSA-4108, CSA-4110, CSA-4112, and CSA-4114 were determined relative to methicillin-resistant Staphylococcus aureus (MRSA), Pseudomonas aeruginosa (Pa), and Candida albicans 90028. The minimum inhibitory concentration (MIC) for CSA-4108, CSA-4110, CSA-4112, and CSA-4114 relative to the foregoing microbes is graphically reported in FIG. 1. The minimum bactericidal concentration (MBC) and minimum fungicidal concentration […] for CSA-4108, CSA-4110, CSA-4112, and CSA-4114 relative to the foregoing microbes are graphically reported in FIG. 2.

lipase = assay: Stability (hydrolysis) in the presence of lipase, HPLC; format: in vitro ADME
Protocol: as §3, §4, §5

[2] = Critical micelle concentration, orange OT dye solubilization; format: physicochemical; conditions: aqueous solution with orange OT dye, water; FIG. 4; read-out: critical micelle concentration (CMC), solubilization of orange OT
Protocol: Previous studies have shown membrane disruption and permeabilization to be the mechanism of action of other CSA compounds. The critical micelle concentration (CMC) of CSA-4110 was measured to determine if aggregation was necessary for antimicrobial activity (see FIG. 4). This assay involves using a hydrophobic dye (orange OT) that is insoluble in water to measure what concentration of CSA-4110 is required to solubilize orange OT. Entry of orange OT into solution is due to micelle formation by CSA-4110 and can be quantified with a spectrophotometer.

[3] = system: methicillin-resistant Staphylococcus aureus (MRSA); assay: MIC and MBC, broth microdilution, MRSA (Table 1); format: cell-based; conditions: Staphylococcus aureus
Source text: (§7) To investigate the antimicrobial impact of structural variance in the novel bioresorbable CSA compounds disclosed herein,Pseudomonas aeruginosa 01 (PA01), methicillin-resistant Staphylococcus aureus (MRSA), and Candida albicans (CA) were selected, representing Gram-negative bacterial, Gram-positive bacterial, and fungal pathogens of high or critical priority on the world health organization's priority lists for bacteria and fungi. Earlier applications of CSA compounds have focused on preventing medical device infections, and all three strains are commonly found in colonized implants, making efficacy against these pathogens an important indicator of future applicability.
as §1

P. mirabilis ATCC 29906 = assay: MIC/MBC of CSA-4110, Gram negative bacteria (Table 3); format: cell-based; conditions: Proteus mirabilis, ATCC29906
Protocol: as §1, §2
PM is a Gram-negative organism which is occasionally found in urinary tract infections in individuals with functional or anatomical anomalies. It is often noted for its ability to modulate its susceptibility to cationic biocides primarily through modifications to its efflux system and the structure of lipopolysaccharide, a negatively charged endotoxin located in the outer membrane. This can provide insight into the mechanism-of-action for CSA-4110. […]

[4] = system: Pseudomonas aeruginosa 01 (PA01); assay: MIC and MBC, broth microdilution, PA01 (Table 1); format: cell-based; conditions: Pseudomonas aeruginosa
Source text: as §7, §1

[5] = system: Pseudomonas aeruginosa (Pa); assay: Example 1 MIC/MBC (FIG. 1, FIG. 2), Pa; format: cell-based
Protocol: as §6

[6] = all strains of Tables 2-4 except Proteus mirabilis

**Q.** What does the source list for `CCCCCCCCCC(=O)OCC(O)COC(=O)CC[C@@H](C)[C@H]1CC[C@H]2[C@@H]3[C@H](OC(=O)CCN)C[C@@H]4C[C@H](OC(=O)CCN)CC[C@]4(C)[C@H]3C[C@H](OC(=O)CCN)[C@]12C` (stereo partly shown) [CSA-4110]?
**A.** MBC (C. auris CDC 381): 8 µg/mL (≈ 9.41 µM); MIC (C. auris CDC 381): 8 µg/mL (≈ 9.41 µM); MBC (C. auris CDC 390): 16 µg/mL (≈ 18.8 µM); MIC (C. auris CDC 390): 8 µg/mL (≈ 9.41 µM); MBC (C. auris CDC 384): 16 µg/mL (≈ 18.8 µM); MIC (C. auris CDC 384): 4 µg/mL (≈ 4.71 µM); MBC (C. auris CDC 389): 16 µg/mL (≈ 18.8 µM); MIC (C. auris CDC 389): 8 µg/mL (≈ 9.41 µM); MBC (C. auris CDC 388): 16 µg/mL (≈ 18.8 µM); MIC (C. auris CDC 388): 8 µg/mL (≈ 9.41 µM); MBC (C. auris CDC 383): 16 µg/mL (≈ 18.8 µM); MIC (C. auris CDC 383): 8 µg/mL (≈ 9.41 µM); MBC (C. auris CDC 387): 16 µg/mL (≈ 18.8 µM); MIC (C. auris CDC 387): 8 µg/mL (≈ 9.41 µM); half-life (physchem; pH 7.2): 108 h; half-life (physchem; pH 10): 24 h; stability / hydrolysis in aqueous solution (physchem; pH 7.2): less stable; stability / hydrolysis in aqueous solution (physchem; pH 10): unstable; MBCs/MFCs, range over the strains [1, 6]: 2 to 16 µg/mL; MICs, range over the strains [1, 6]: 2 to 8 µg/mL; MICs, range as restated in the CMC paragraph ([1]; compared with CMC): 2 to 8 g/mL; MFC (FIG. 2), ranking in words (Candida albicans 90028): lowest MBC and MFC; MIC (FIG. 1), ranking in words (Candida albicans 90028): same MIC; hydrolysis in aqueous solution containing lipase (lipase; FIG. 3D): hydrolyzed most rapidly; half-life (lipase; mammalian (lipase; species not named), lipase in aqueous solution, dissolved with a lipase at room temperature at pH=6.9): 1 h; critical micelle concentration [2]: ~1000 µg/mL; MBC ([3]; MBC, value in parentheses, kills at least 99.9%): 8 µg/mL (≈ 9.41 µM); MIC ([3]; first value of cell): ≤ 8 µg/mL; MBC (P. mirabilis ATCC 29906): 64 µg/mL; MIC (P. mirabilis ATCC 29906): 16 µg/mL; MBC ([4]; MBC, value in parentheses): 32 µg/mL (≈ 37.6 µM); MIC ([4]; first value of cell): 8 µg/mL (≈ 9.41 µM); MBC (FIG. 2), ranking in words ([5]; PA): lowest MBC and MFC; MIC (FIG. 1), ranking in words ([5]; Pa): lowest MIC

Reference: patent US20250073248A1, “BIORESORBABLE CATIONIC STEROIDAL ANTIMICROBIAL COMPOUNDS WITH GLYCERIDE LINKAGES” (BRIGHAM YOUNG UNIVERSITY, priority 2023, published 2025)
